Source: patent publication US20260200890A1, “ADAR1 INHIBITORS AND METHODS OF USING THE SAME” (AVAMMUNE THERAPEUTICS INC., priority 2022, published 2026)

Columns and labels:
[1] = molecular target: T1, Zα domain of ADAR1 p150 (Homo sapiens, UniProt P55265); test: SPR binding assay; conditions: 6× his tag Zα domain immobilized on CM5 chip, analyte 0-25 μM
T1 construct: 10 μg/ml of Zα domain of ADAR1 was immobilized on CM5 chip using anti-HIS antibody; made in house
T1 sequence (P55265 133-199 limits assumed): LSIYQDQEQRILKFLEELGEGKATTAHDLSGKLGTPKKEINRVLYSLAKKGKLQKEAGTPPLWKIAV
Method: 6× his tag Za domain of ADAR1 p150 was purified using bacterial purification system. Protein was isolated from supernatant of cell lysate using Ni-NTA resin. For binding assay using SPR, 10 μg/ml of Zα domain of ADAR1 was immobilized on CM5 chip using anti-HIS antibody. Binding was quantified using the following condition below: • Analyte: 25, 12.5, 6.25, 3.125, 1.56, 0.78, 0 μM • Contact time—60 seconds, • Dissociation time—320 seconds • Flow rate—30 μL/minute Running buffer-PBSP+5% DMSO • After curve fitting, Kd values for synthesized compounds was quantified using the instrument software.

[2] = molecular target: T2, ADAR1 (Homo sapiens, UniProt P55265); test: ADAR1 Inhibition Assay (IFN fold-induction, Quanti-Luc luminescence, p110 KO A549 dual cells); format: cell-based; conditions: IFN fold-induction vs DMSO, 24 and 48 h
T2 construct: endogenous in cells; host or cells: p110 KO A549 dual cells
T2 sequence (P55265 1-1226): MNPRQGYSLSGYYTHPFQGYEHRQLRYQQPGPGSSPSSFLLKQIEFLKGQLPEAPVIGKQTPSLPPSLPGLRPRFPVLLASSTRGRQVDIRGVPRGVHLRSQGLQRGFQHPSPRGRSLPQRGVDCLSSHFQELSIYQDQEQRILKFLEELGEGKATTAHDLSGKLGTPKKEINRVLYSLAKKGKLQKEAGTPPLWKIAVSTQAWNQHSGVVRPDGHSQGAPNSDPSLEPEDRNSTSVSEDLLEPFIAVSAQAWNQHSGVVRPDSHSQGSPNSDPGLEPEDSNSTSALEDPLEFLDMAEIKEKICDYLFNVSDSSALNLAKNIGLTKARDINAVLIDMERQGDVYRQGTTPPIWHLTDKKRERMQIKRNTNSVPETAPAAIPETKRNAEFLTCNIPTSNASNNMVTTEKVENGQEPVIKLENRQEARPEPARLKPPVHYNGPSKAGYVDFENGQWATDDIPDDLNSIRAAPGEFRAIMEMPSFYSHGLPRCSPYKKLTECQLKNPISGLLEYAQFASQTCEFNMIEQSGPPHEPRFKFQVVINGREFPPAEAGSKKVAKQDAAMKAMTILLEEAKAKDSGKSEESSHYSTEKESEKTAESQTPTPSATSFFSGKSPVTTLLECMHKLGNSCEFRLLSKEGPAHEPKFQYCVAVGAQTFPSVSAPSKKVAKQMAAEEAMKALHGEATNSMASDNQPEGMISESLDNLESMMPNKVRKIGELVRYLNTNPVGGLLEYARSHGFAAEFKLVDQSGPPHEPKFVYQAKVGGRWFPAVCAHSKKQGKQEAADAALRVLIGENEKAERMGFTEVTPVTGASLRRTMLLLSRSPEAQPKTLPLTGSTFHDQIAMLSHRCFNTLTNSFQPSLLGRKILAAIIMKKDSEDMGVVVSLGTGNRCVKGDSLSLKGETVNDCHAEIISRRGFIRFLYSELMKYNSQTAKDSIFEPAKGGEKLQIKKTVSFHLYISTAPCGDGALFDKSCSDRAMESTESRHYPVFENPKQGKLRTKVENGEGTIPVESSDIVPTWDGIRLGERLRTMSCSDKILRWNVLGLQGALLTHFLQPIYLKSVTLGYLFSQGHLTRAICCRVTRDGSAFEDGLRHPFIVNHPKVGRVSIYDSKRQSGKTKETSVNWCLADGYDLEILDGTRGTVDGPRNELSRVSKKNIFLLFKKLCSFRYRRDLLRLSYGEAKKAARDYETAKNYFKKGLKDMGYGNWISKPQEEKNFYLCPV
In short: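 p110 KO A549 dual cells (20,000/well) in supplemented DMEM, treated next day with compound at 1% final DMSO for 24 and 48 h at 37 °C, 5% CO2. Supernatant luminescence read with Quanti-Luc; IFN fold-induction = sample RLU/mean DMSO RLU, used for EC50.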

## CCOC(=O)c1cc(-c2ccccc2)sc1NC(=O)CNC(=O)c1cccc(NS(C)(=O)=O)c1 [Compound 13]
[1]
  Kd: ≤ 1 µM
[2]
  EC50: > 100 µM

## CCOC(=O)c1cc(-c2ccccc2)sc1NC(=O)COC(=O)c1cccc(NS(C)(=O)=O)c1 [Compound 66, Ethyl 2-(2-((3-(methylsulfonamido)benzoyl)oxy)acetamido)-5-phenylthiophene-3-carboxylate]
[1]
  Kd: ≤ 1 µM
[2]
  EC50: ≤ 25 µM

## CCOC(=O)c1cc(-c2ccccc2)sc1NC(=O)COC(=O)c1cccc(C(F)(F)F)c1 [Compound 70]
[1]
  Kd: > 25 µM
[2]
  EC50: > 100 µM

## CCOC(=O)c1cc(-c2ccccc2)sc1NC(=O)COC(=O)c1cccc(C#N)c1 [Compound 71]
[1]
  Kd: ≤ 1 µM
[2]
  EC50: > 100 µM

## CCOC(=O)c1cc(-c2ccccc2)sc1NC(=O)C1CCCN1C(=O)c1cccc(S(N)(=O)=O)c1 (stereo not drawn) [Compound 72]
[1]
  Kd: 1 to 10 µM
[2]
  EC50: ≤ 25 µM

## CCOC(=O)c1cc(-c2ccccc2)sc1NC(=O)COC(=O)c1cccc(NC(C)=O)c1 [Compound 107]
[1]
  Kd: ≤ 1 µM
[2]
  EC50: > 100 µM

## CCOC(=O)c1cc(-c2ccccc2)sc1NC(=O)COC(=O)c1cccc(NS(C)(=O)=O)c1 [Compound 121]
[1]
  Kd: ≤ 1 µM
[2]
  EC50: > 100 µM

## CS(=O)(=O)Nc1cccc(C(=O)OCC(=O)Nc2sc(-c3ccccc3)cc2C#N)c1 [Compound 127]
[1]
  Kd: ≤ 1 µM
[2]
  EC50: > 100 µM

## CCOC(=O)c1cc(-c2ccccc2)sc1NC(=O)COC(=O)c1cccc(N(C)S(C)(=O)=O)c1 [Compound 130]
[1]
  Kd: ≤ 1 µM
[2]
  EC50: > 100 µM

## CCOC(=O)c1cc(-c2ccccc2)sc1NC(=O)COC(=O)c1cccc(NS(=O)(=O)C2CCCCC2)c1 [Compound 132]
[1]
  Kd: ≤ 1 µM
[2]
  EC50: > 100 µM

## CCOC(=O)c1cc(-c2ccccc2)sc1NC(=O)COC(=O)c1ccc(F)c(NS(C)(=O)=O)c1 [Compound 137]
[1]
  Kd: > 25 µM
[2]
  EC50: > 100 µM

## CCOC(=O)c1nc(-c2ccccc2)sc1NC(=O)COC(=O)c1cccc(NS(C)(=O)=O)c1 [Compound 144]
[1]
  Kd: ≤ 1 µM
[2]
  EC50: > 100 µM

## CCOC(=O)c1cc(-c2ccccc2)sc1NC(=O)COc1cccc(NS(C)(=O)=O)c1 [Compound 147]
[1]
  Kd: ≤ 1 µM
[2]
  EC50: > 100 µM

## CCOC(=O)c1cc(-c2ccccc2)sc1NC(=O)COC(=O)C1CCCC(NS(C)(=O)=O)C1 (stereo not drawn) [Compound 150]
[1]
  Kd: > 25 µM
[2]
  EC50: > 100 µM

## CCOC(=O)c1cc(-c2ccccc2)sc1NC(=O)COC(=O)c1cccc(NS(=O)(=O)C2CC2)c1 [Compound 161]
[1]
  Kd: > 25 µM
[2]
  EC50: ≤ 25 µM

## CCOC(=O)c1cc(-c2ccccc2)sc1NC(=O)COC(=O)c1ccc2c(c1)OCCO2 [Compound 163]
[1]
  Kd: ≤ 1 µM
[2]
  EC50: > 100 µM

## CCOC(=O)c1cc(-c2ccccc2)ccc1NC(=O)COC(=O)c1cccc(NS(C)(=O)=O)c1 [Compound 171]
[1]
  Kd: > 25 µM
[2]
  EC50: > 100 µM

## CCOC(=O)c1cc(-c2ccccc2)sc1NC(=O)COC(=O)C1CN(S(C)(=O)=O)CCO1 (stereo not drawn) [Compound 172]
[1]
  Kd: ≤ 1 µM
[2]
  EC50: > 100 µM

## CCOC(=O)c1cc(-c2ccccc2)sc1NC(=O)CN(C)Cc1cccc(NS(C)(=O)=O)c1 [Compound 180]
[1]
  Kd: ≤ 1 µM
[2]
  EC50: > 100 µM

## CS(=O)(=O)Nc1cccc(C(=O)OCC(=O)N2CCN(c3ccccc3)C2=O)c1 [Compound 220]
[1]
  Kd: ≤ 1 µM
[2]
  EC50: > 100 µM

## CS(=O)(=O)Nc1cccc(C(=O)OCc2nc(=O)c3cc(-c4ccccc4)sc3[nH]2)c1 [Compound 241]
[1]
  Kd: ≤ 1 µM
[2]
  EC50: > 100 µM

## CCOC(=O)c1cc(-c2ccccc2)sc1NC(=O)c1ccc(-c2cccc(NS(C)(=O)=O)c2)nc1 [Compound 253]
[1]
  Kd: ≤ 1 µM
[2]
  EC50: > 100 µM

## CS(=O)(=O)Nc1cccc(C(=O)OCC(=O)Nc2nc3ccccc3o2)c1 [Compound 270]
[1]
  Kd: ≤ 1 µM
[2]
  EC50: > 100 µM

## CCOC(=O)c1cc(-c2ccccc2)sc1NC(=O)Cn1cnc(-c2cccc(NS(C)(=O)=O)c2)n1 [Compound 274]
[1]
  Kd: ≤ 1 µM
[2]
  EC50: > 100 µM

## CCOC(=O)c1cc(-c2ccccc2)sc1C(=O)CNC(=O)c1cccc(NS(C)(=O)=O)c1 [Compound 292]
[1]
  Kd: ≤ 1 µM
[2]
  EC50: > 100 µM

## CCOC(=O)c1cc(-c2ccccc2)sc1-c1cccc(NC(=O)c2cccc(NS(C)(=O)=O)c2)c1 [Compound 293]
[1]
  Kd: > 25 µM
[2]
  EC50: > 100 µM

## CCOC(=O)c1cc(-c2ccccc2)sc1C1=CCN(C(=O)c2cccc(NS(C)(=O)=O)c2)CC1 [Compound 294]
[1]
  Kd: ≤ 1 µM
[2]
  EC50: > 100 µM

## CCOC(=O)c1cc(-c2ccccc2)sc1NC(=O)COC(=O)c1cccc(OS(=O)(=O)F)c1 [Compound 302]
[1]
  Kd: ≤ 1 µM

## CCOC(=O)c1cc(-c2ccccc2)sc1NC(=O)CNC(=O)Cc1cccc(NS(C)(=O)=O)c1 [Compound 310]
[1]
  Kd: ≤ 1 µM
[2]
  EC50: ≤ 25 µM

## CCOC(=O)c1sc(-c2ccccc2)cc1NC(=O)CNC(=O)Cc1cccc(NS(C)(=O)=O)c1 [Compound 357]
[1]
  Kd: 1 to 10 µM

## CCOC(=O)c1cc(-c2ccccc2)sc1NC(=O)COC(=O)c1cccc(OP(=O)(N[C@H](C)C(=O)OC(C)C)Oc2ccccc2)c1 (stereo partly drawn) [Compound 411]
[2]
  EC50: > 100 µM

## CCOC(=O)c1cc(-c2ccccc2)sc1NC(=O)[C@@H]1CCCN1C(=O)c1cccc(P(=O)(O)O)c1 [Compound 413]
[2]
  EC50: > 100 µM

## CCOC(=O)c1cc(-c2ccccc2)sc1NC(=O)Cn1cc(C(=O)Nc2cccc(P(=O)(OCC)OCC)c2)nn1 [Compound 417]
[2]
  EC50: > 100 µM

## CCOC(=O)c1sc(-c2ccccc2)cc1NC(=O)COC(=O)c1cccc(S(N)(=O)=O)c1 [Compound 423]
[2]
  EC50: > 100 µM

## CCOC(=O)c1cc(-c2ccccc2)sc1NC(=O)C1CCN(C(=O)c2cccc(S(N)(=O)=O)c2)C1 (stereo not drawn) [Compound 425]
[2]
  EC50: > 100 µM

## CCOC(=O)c1cc(-c2ccc(P(=O)(OCC)OCC)cc2)sc1NC(=O)COC(=O)c1cccc(S(N)(=O)=O)c1 [Compound 429]
[2]
  EC50: > 100 µM

## CCOC(=O)c1cc(-c2ccccc2)sc1NC(=O)CNC(=O)CCc1cccc(P(=O)(O)O)c1 [Compound 432]
[1]
  Kd: ≤ 1 µM

## CCOC(=O)c1cc(-c2ccccc2)sc1NC(=O)CN(C)C(=O)c1cccc(P(=O)(O)O)c1 [Compound 435]
[1]
  Kd: ≤ 1 µM

## CCOC(=O)c1cc(-c2ccccc2)sc1NC(=O)CNC(=O)CCc1cccc(P(=O)(OCC)OCC)c1 [Compound 436]
[1]
  Kd: ≤ 1 µM

## CCNC(=O)c1cc(-c2ccccc2)sc1NC(=O)CNC(=O)c1ccc(P(=O)(OCC)OCC)cc1 [Compound 437]
[1]
  Kd: ≤ 1 µM

## CCOC(=O)c1cc(-c2ccccc2)sc1NC(=O)CNC(=O)c1cccc(C(=O)O)c1 [Compound 439]
[1]
  Kd: ≤ 1 µM
